Data set [1] relates to D-aminoacylase derived from Streptomyces thermonitrificans. Put plainly: Effect of inhibitors against D-aminoacylase. The class given is biochemical. Particulars: for Effect on enzyme activity (in words): SH reagents, 1 mM. The protocol:
(§1) The measurement of the enzyme activity was proceeded according to the TNBS method (Tokuyama, S., Hatano, K., and Takahashi, T., Biosci.Biotech.Biochem. 58:24(1994)). That is, the sample containing the amino acid was added to 0.5 ml of solution (C) (0.1 M Na2B4O7) to give a total volume of 1.0 ml. […] of 0.11 M TNBS solution was added with stirring immediately. The absorbance at 420 nm was measured after 5 minutes.
(§2) Various metal salt and various enzyme inhibitors were added to a concentration of 1 mM to the enzyme reaction, and measurement of the enzyme reaction was performed. The enzyme reaction was conducted in 50 mM Tris/HCl (pH 7.5) buffer (total volume of 500 μl). For the metal salt added reaction, 1 mM of each metal salt or EDTA was added to the standard reaction composition solution without the enzyme and was preincubated at 30° C. for 5 minutes, then enzyme was added to react at 30° C. for 60 minutes. For the enzyme inhibitor added reaction, the standard reaction solution without the substrate was preincubated at 5 minutes, then after adding 1 mM of each inhibitor […] the substrate was added, and the enzyme reaction was performed at 30° C. for 100 minutes. The relative activity was calculated taking activity of enzyme actions without addition of inhibitors as 100%.

For data set [2] the test system is unchanged. The data set can be described thus: Effect of metal salt for D-aminoacylase. The class given is biochemical. The conditions noted are these: for Effect on enzyme activity (in words): 1 mM metal ion or EDTA. The protocol: as §1, §2
The conditions of data set [3]: in vivo; cited from earlier work.
Data set [4] has as its system D-aminoacylase derived from Streptomyces thermonitrificans. The data set can be described thus: Substrate specificity of D-aminoacylase. The format is biochemical. The conditions noted are these: for Catalysis of the reaction with the substrate (in words): N-acetyl amino acid substrates; for Activity / Relative activity: substrate 20 mM; for Activity: 1 mM cobalt chloride, 50 mM Tris/HCl pH 7.5, 30° C., 60 minutes; for Relative activity: activity against N-acetyl-D-methionine taken as 100%. The protocol:
The activity of the D-aminoacylase of the present invention can be tested by the following procedure. For example, an enzyme solution (100 μl) is mixed and incubated with 50 mM Tris-HCl (pH 7.5) buffer (total volume: 500 μl) containing 20 mM substrate (various N-acetyl-D-amino acids) at 30° C. for 60 minutes. By measuring the amounts of amino acid synthesized by this reaction, enzymatic activities for respective substrates can be compared with each other. Assay for amino acid is performed by the TNBS (trinitrobenzenesulfonic acid) method or the HPLC method.
as §1
D-methionine was measured colorimetrically using L-methionine as a standard, and the amount of enzyme-producing 1 μmol of D-methionine in 1 minute at 30° C. was determined 1 unit.
The substrate specificity of the enzyme of the present invention was compared taking the enzyme activity against N-acetyl-D-methionine as 100%. N-acetyl-D-valine, N-acetyl-D-phenylalanine, N-acetyl-D-leucine, N-acetyl-D-tryptophan, N-acetvl-D-alanine N-acetyl-L-methionine, N-acetyl-L-leucine, and N-acetyl-L-valine was used as the substrate for comparison. The enzyme activity was measured in a standard reaction solution (total volume of 500 μl containing 100 μl of enzyme solution, and 400 μl of 50 mM Tris/HCl (pH 7.5) containing 20 mM of each substrate and 1 mM cobalt chloride at 30° C. for 60 minutes. The substrate specificity for N-acetyls of D-methionine, D-leucine, D-valine, D-tryptophan, D-alanine and D-phenylalanine is depicted in Table 2.

Where [5] appears, read: 1 mM reagent, 50 mM Tris/HCl pH 7.5, 30° C., 100 minutes.
Where [6] appears, read: 1 mM reagent, no addition = 100%.
The mark [7] stands for this setting: 1 mM metal salt or EDTA, 50 mM Tris/HCl pH 7.5, 30° C., 60 minutes.
Setting [8] is: 1 mM metal salt or EDTA, no addition = 100%.

“Also recorded” adds a separate entry of the source.

As for `O=C(NNc1ccccc1)NNc1ccccc1` [1,5-Diphenylcarbonylhydrazide], the Activity in data set [1] (setting [5]) came to 40.5 mU/ml. Further, in data set [1] (setting [6]), the Relative activity is 89%.

In data set [1] (setting [5]), `c1ccc(-c2ccccn2)nc1` [2,2′-Bipyridyl] returned an Activity of 21.9 mU/ml. Moreover, the Relative activity in data set [1] (setting [6]) is 49%.

For `O=S(=O)([O-])[O-].O=S(=O)([O-])[O-].O=S(=O)([O-])[O-].[Al+3].[Al+3]` [Al2(SO4)2], in data set [2] (setting [7]), the Activity was found to be 25.2 mU/ml. Further, the Relative activity in data set [2] (setting [8]) is reported as 90%.

Turning to `[Ba+2].[Cl-].[Cl-]` [BaCl2], in data set [2] (setting [7]), the Activity is 30.6 mU/ml. For the same compound, the Relative activity in data set [2] (setting [8]) stood at 95%.

On to `[Ca+2].[Cl-].[Cl-]` [CaCl2], for which the Activity in data set [2] (setting [7]) was 31.1 mU/ml. For the same compound, the Relative activity in data set [2] (setting [8]) is reported as 97%.

With `[Cl][Co][Cl]` [CoCl2, cobalt chloride], the “Effect on enzyme activity (in words)” value in data set [2] is given as “increased”. For the same compound, the Activity in data set [2] (setting [7]) was 54.4 mU/ml. The Relative activity in data set [2] (setting [8]) amounted to 168%.

As for `[Cl][Cu][Cl]` [CuCl2], the “Effect on enzyme activity (in words)” value in data set [2] is “markedly inhibited”. Also, the Activity in data set [2] (setting [7]) came out at 1.0 mU/ml. The Relative activity in data set [2] (setting [8]) turned out to be 3%.

On to `O=C1CCC(N2C(=O)c3ccccc3C2=O)C(=O)N1` [D(R)-form thalidomide, thalidomide], for which the Teratogenic activity result in data set [3] is given as “no teratogenic activity”.

`O[C@@H](CS)[C@@H](O)CS` [DTT] returned an Activity in data set [1] (setting [5]) of 34.8 mU/ml. Besides, in data set [1] (setting [6]), the Relative activity is on record as 76%.

In the case of `O=C(O)CN(CCN(CC(=O)O)CC(=O)O)CC(=O)O` [EDTA], in data set [2], the “Effect on enzyme activity (in words)” value was “inhibited”. Besides, the Activity in data set [2] (setting [7]) was found to be 9.4 mU/ml. Moreover, in data set [2] (setting [8]), the Relative activity worked out at 29%.

For the compound `[Cl][Fe][Cl]` [FeCl2], the Activity in data set [2] (setting [7]) is 20.4 mU/ml. Besides, the Relative activity in data set [2] (setting [8]) came to 63%.

With `[Cl][Fe]([Cl])[Cl]` [FeCl3], the Activity in data set [2] (setting [7]) amounted to 22.0 mU/ml. For the same compound, in data set [2] (setting [8]), the Relative activity worked out at 68%.

Take `NO` [Hydroxylammonium chloride]: in data set [1], the Relative activity worked out at 102%. Further, the Activity in data set [1] (setting [5]) is on record as 46.5 mU/ml.

Regarding `[Cl-].[K+]` [KCl], the Activity in data set [2] (setting [7]) came out at 30.9 mU/ml. For the same compound, the Relative activity in data set [2] (setting [8]) is 93%.

In turn, `[I-].[K+]` [KI] yielded an Activity in data set [1] (setting [5]) of 11.3 mU/ml. In addition, the Relative activity in data set [1] (setting [6]) is 24%.

As for `O=C1CCC(N2C(=O)c3ccccc3C2=O)C(=O)N1` [L(S)-form, thalidomide], the Teratogenic activity entry in data set [3] was “strong teratogenicity”.

Turning to `[Cl-].[Cl-].[Mg+2]` [MgCl2], the Activity in data set [2] (setting [7]) amounted to 35.2 mU/ml. In addition, in data set [2] (setting [8]), the Relative activity worked out at 109%.

For the compound `[Cl][Mn][Cl]` [MnCl2], the Activity in data set [2] (setting [7]) is 21.0 mU/ml. For the same compound, the Relative activity in data set [2] (setting [8]) turned out to be 65%.

Consider `O=C(O)CI` [Monoiodoacetic acid], for which, in data set [1], the Relative activity is reported as 84%. Also, the Activity in data set [1] (pH 7.5) is listed as 37.9 mU/ml.

As for `CC(=O)N[C@H](C)C(=O)O` [N-Ac-D-Ala, N-acetyl-D-alanine], in data set [4], the “Catalysis of the reaction with the substrate (in words)” value (“Catalysis of the reaction” below) was “catalyzes; also recorded: catalytic actions”, the Activity is on record as 16.9 mU/ml and the Relative activity came out at 40%.

Regarding `CC(=O)N[C@H](CC(C)C)C(=O)O` [N-Ac-D-Leu, N-acetyl-D-leucine], in data set [4], the “Catalysis of the reaction” value is “catalyzes; also recorded: catalytic actions”, the Activity is given as 8.93 mU/ml and the Relative activity is given as 21%.

On to `CSCC[C@@H](NC(C)=O)C(=O)O` [N-Ac-D-Met, N-acetyl-D-methionine], for which, in data set [4], the “Catalysis of the reaction” value is recorded as “efficiently catalyzes; also recorded: catalyze especially well”, the Activity amounted to 40.6 mU/ml and the Relative activity turned out to be 100%.

Take `CC(=O)N[C@H](Cc1ccccc1)C(=O)O` [N-Ac-D-Phe, N-acetyl-D-phenylalanine]: in data set [4], the “Catalysis of the reaction” value is recorded as “efficiently catalyzes; also recorded: catalyze especially well”, the Activity worked out at 62.2 mU/ml and the Relative activity turned out to be 144%.

With `CC(=O)N[C@H](Cc1c[nH]c2ccccc12)C(=O)O` [N-Ac-D-Trp, N-acetyl-D-tryptophan], in data set [4], the “Catalysis of the reaction” value is “efficiently catalyzes; also recorded: catalyze especially well”, the Activity amounted to 48.4 mU/ml and the Relative activity was found to be 105%.

As for `CC(=O)N[C@@H](C(=O)O)C(C)C` [N-Ac-D-Val, N-acetyl-D-valine], in data set [4], the “Catalysis of the reaction” value was “catalyzes; also recorded: catalytic actions”, the Activity was 14.7 mU/ml and the Relative activity amounted to 40%.

In the case of `CSCC[C@H](NC(C)=O)C(=O)O` [N-Ac-L-Met, N-acetyl-L-methionine], in data set [4], the “Catalysis of the reaction” value is reported as “didn't catalyze; also recorded: substantially no catalytic activity”, the Activity was found to be 0 mU/ml and the Relative activity was determined as 0%.

In the case of `CC(=O)N[C@@H](Cc1ccccc1)C(=O)O` [N-Ac-L-Phe, N-acetyl-L-phenylalanine], in data set [4], the “Catalysis of the reaction” value is “didn't catalyze; also recorded: substantially no catalytic activity”, the Activity is 0 mU/ml and the Relative activity amounted to 0%.

As to `CC(=O)N[C@H](C(=O)O)C(C)C` [N-Ac-L-Val, N-acetyl-L-valine], in data set [4], the “Catalysis of the reaction” value is “didn't catalyze; also recorded: substantially no catalytic activity”, the Activity is reported as 0 mU/ml and the Relative activity is given as 0%.

As to `CCN1C(=O)C=CC1=O` [N-Ethylmaleimide], the Activity in data set [1] (setting [5]) is listed as 1.3 mU/ml. In data set [1] (setting [6]), the Relative activity worked out at 3%. Besides, the “Effect on enzyme activity (in words)” value in data set [1] was “inhibited”.

Turning to `[Cl-].[Na+]` [NaCl], the Relative activity in data set [2] is 103%. In addition, the Activity in data set [2] (pH 7.5) turned out to be 33.1 mU/ml.

As for `[F-].[Na+]` [NaF], the Activity in data set [1] (setting [5]) was 45.2 mU/ml. The Relative activity in data set [1] (setting [6]) was 99%.

With `[Cl][Ni][Cl]` [NiCl2], in data set [2] (setting [7]), the Activity amounted to 15.9 mU/ml. Further, the Relative activity in data set [2] (setting [8]) is on record as 51%.

In the case of `O=S(=O)(F)Cc1ccccc1` [Phenylmethylsulfonyl fluoride], the Activity in data set [1] (setting [5]) stood at 29.5 mU/ml. In data set [1] (setting [6]), the Relative activity stood at 70%.

For `[Cl][Sn][Cl]` [SnCl2], the Activity in data set [2] (setting [7]) is reported as 32.8 mU/ml. Also, the Relative activity in data set [2] (setting [8]) is 102%.

As for `[Cl-].[Cl-].[Zn+2]` [ZnCl2], in data set [2] (setting [7]), the Activity was determined as 22.2 mU/ml. In data set [2] (setting [8]), the Relative activity is 68%.

The compound `O=C(O)c1cc[c]([Hg][Cl])cc1` [p-Chloromercuribenzoic acid] showed an Activity in data set [1] (setting [5]) of 2.1 mU/ml. In addition, in data set [1] (setting [6]), the Relative activity is given as 4%. Also, the “Effect on enzyme activity (in words)” value in data set [1] is given as “inhibited”.
